Source: patent US11406619B2, “Injectable formulations” (priority 2020, dated 2022)
Marks after values point to notes of the source that are not given here.

Experiments:
[1] = HPLC purity/related substances of formulations at preparation and on storage; conditions: for Total related substances: 2.5 mg/mL in 40 mM B-R buffer
human brain activity = conditions: injection into human volunteers, relative to placebo; cited from earlier work
[2] = pH readings of formulations at preparation and on storage; assay type: physicochemical; conditions: for pH / drop in pH on preparation: 2.5 mg/mL in 40 mM B-R buffer
Experimental: pH readings were obtained using a Mettler Toledo MP225 pH meter. The electrode probe was inserted into the test solutions, contained in a glass vial, with brief stirring at ambient temperature.
Instrument verification was performed prior and post each use using, as supplied, pH buffer solutions over the range pH 1.68 to 10.01 for confirmation of accuracy.

[3] = HPLC assay (concentration / percentage recovery) of formulations at preparation and on storage; conditions: for Concentration (assay): 40 mM B-R buffer
[4] = Solubility of DMT fumarate at different pH values (20 mg/mL, Britton-Robinson buffer)
[5] = Solubility of DMT fumarate at 10 mg/mL in aqueous vehicles (initial tests); assay type: physicochemical; conditions: 10 mg/mL in water, saline, 20 mM phosphate buffer, and buffer combined with saline
Experimental: Solubility of DMT fumarate was assessed at a concentration of 10 mg/mL in a small selection of aqueous vehicles (water, saline, 20 mM phosphate buffer and a combination of buffer and saline).
Phosphate buffer (100 mL) was prepared using 219.53 mg of the dibasic form [HPO4][Na]2 with 183.7 mg of the monobasic form [H2PO4]Na, both dihydrate salts. The solution was adjusted to pH 7.0 with addition of NaOH (1 M) and then made to volume. 10 mL of a 10 mg/mL formulation was prepared.
To prepare this, sodium chloride was first dissolved in water to produce the saline solution (100 mL, 0.45% w/v). The phosphate salts, in the quantities described above, were then dissolved in the saline solution and the pH was adjusted using NaOH (1 M).
The pH of these solutions was in the range 3-4.

[6] = nominal pH 5.0, Day 17 (10 days 40° C. then 7 days 50° C.)
[7] = nominal pH 6.0, Day 17 (10 days 40° C. then 7 days 50° C.)
[8] = nominal pH 6.5, Day 17 (10 days 40° C. then 7 days 50° C.)
[9] = nominal pH 7.0, Day 17 (10 days 40° C. then 7 days 50° C.)
[10] = nominal pH 7.0, on completion of light stressing (200 watt hours UVA, 0.6 million lux hours)
[11] = nominal pH 7.0 sparged N2, Day 17 (10 days 40° C. then 7 days 50° C.)
[12] = nominal pH 7.5, Day 17 (10 days 40° C. then 7 days 50° C.)
[13] = nominal pH 8.0, Day 17 (10 days 40° C. then 7 days 50° C.)
[14] = nominal pH 9.0, Day 7 (7 days 40° C.)
[15] = nominal pH 9.0, Day 17 (10 days 40° C. then 7 days 50° C.)
[16] = B-R buffer, nominal pH 7, Day 17 (10 days 40° C., 7 days 50° C.)
[17] = B-R buffer, nominal pH 7 UV light exposure (200 watt hours UVA, 0.6 million luxhours)
[18] = B-R buffer, nominal pH 7.5, Day 17 (10 days 40° C., 7 days 50° C.)
[19] = B-R buffer, nominal pH 8, Day 17 (10 days 40° C., 7 days 50° C.)
[20] = B-R buffer, nominal pH 9, Day 17 (10 days 40° C., 7 days 50° C.)
[21] = nominal pH 4.0, Day 7 (7 days 40° C.)
[22] = nominal pH 4.0, Day 17 (10 days 40° C. then 7 days 50° C.)
[23] = nominal pH 5.0, Day 7 (7 days 40° C.)
[24] = nominal pH 6.0, Day 7 (7 days 40° C.)
[25] = nominal pH 6.5, Day 7 (7 days 40° C.)
[26] = nominal pH 7.0, Day 7 (7 days 40° C.)
[27] = nominal pH 7.5, Day 7 (7 days 40° C.)
[28] = nominal pH 8.0, Day 7 (7 days 40° C.)
[29] = phosphate buffer pH 7.4 in 0.45% w/v sodium chloride, both 30 mM and 50 mM buffer strengths

## DMT fumarate [SPL026]
[1]; [6]
  Total related substances: 0.07%
[1]; [7]
  Total related substances: 0.09%
[1]; [8]
  Total related substances: 0.10%
[1]; [9]
  Total related substances: 0.26%
[1]; [10]
  Total related substances: 1.68^a %
[1]; nominal pH 7.0, on completion of light stressing (200 watt hours UVA, 0.6 million lux hours), listed as DMT fumarate
  Total related substances: 1.68%
[1]; [11]
  Total related substances: 0.05%
[1]; [12]
  Total related substances: 0.42%
[1]; [13]
  Total related substances: 0.58%
[1]; [14]
  Total related substances: 0.10%
[1]; [15]
  Total related substances: 0.61%
[1]; B-R buffer, nominal pH 5, Day 17 (10 days 40° C., 7 days 50° C.)
  related substance at RRT 1.56, percentage area of total peak area: 0.07%
[1]; B-R buffer, nominal pH 6, Day 17 (10 days 40° C., 7 days 50° C.)
  related substance at RRT 1.56, percentage area of total peak area: 0.09%
[1]; B-R buffer, nominal pH 6.5, Day 17 (10 days 40° C., 7 days 50° C.)
  related substance at RRT 1.56, percentage area of total peak area: 0.10%
[1]; B-R buffer, nominal pH 6.5 with N2 (sparged with nitrogen), Day 17 (10 days 40° C., 7 days 50° C.)
  related substance at RRT 1.56, percentage area of total peak area: 0.05%
[1]; [16]
  related substance at RRT 0.73, percentage area of total peak area: 0.09%
  related substance at RRT 0.91, percentage area of total peak area: 0.05%
  related substance at RRT 1.56, percentage area of total peak area: 0.12%
[1]; [17]
  related substance at RRT 0.54, percentage area of total peak area: 0.05%
  related substance at RRT 0.62, percentage area of total peak area: 0.17%
  related substance at RRT 0.64, percentage area of total peak area: 0.54%
  related substance at RRT 0.73, percentage area of total peak area: 0.23%
  related substance at RRT 0.74, percentage area of total peak area: 0.15%
  related substance at RRT 0.77, percentage area of total peak area: 0.06%
  related substance at RRT 0.80, percentage area of total peak area: 0.07%
  related substance at RRT 1.17, percentage area of total peak area: 0.18%
  related substance at RRT 1.20, percentage area of total peak area: 0.13%
  related substance at RRT 1.56, percentage area of total peak area: 0.10%
[1]; [18]
  related substance at RRT 0.73, percentage area of total peak area: 0.14%
  related substance at RRT 0.91, percentage area of total peak area: 0.07%
  related substance at RRT 1.11, percentage area of total peak area: 0.12%
  related substance at RRT 1.56, percentage area of total peak area: 0.09%
[1]; [19]
  related substance at RRT 0.73, percentage area of total peak area: 0.15%
  related substance at RRT 0.91, percentage area of total peak area: 0.09%
  related substance at RRT 0.95, percentage area of total peak area: 0.05%
  related substance at RRT 1.11, percentage area of total peak area: 0.22%
  related substance at RRT 1.56, percentage area of total peak area: 0.07%
[1]; [20]
  related substance at RRT 0.73, percentage area of total peak area: 0.12%
  related substance at RRT 0.91, percentage area of total peak area: 0.11%
  related substance at RRT 1.11, percentage area of total peak area: 0.12%
  related substance at RRT 1.56, percentage area of total peak area: 0.38%
Human brain activity
  alpha power (EEG): suppressed alpha power
  delta and theta power (EEG): normalized/increased delta and theta power
[2]; [21]
  pH: 3.84
[2]; [22]
  pH: 3.84
[2]; nominal pH 4.0, Initial
  pH: 3.86
[2]; [23]
  pH: 4.55
[2]; [6]
  pH: 4.52
[2]; nominal pH 5.0, Initial
  pH: 4.57
[2]; [24]
  pH: 5.07
[2]; [7]
  pH: 5.06
[2]; nominal pH 6.0, Initial
  pH: 5.08
[2]; [25]
  pH: 5.33
[2]; [8]
  pH: 5.31
[2]; nominal pH 6.5, Initial
  pH: 5.33
[2]; nominal pH 6.5 sparged N2, Day 17 (10 days 40° C. then 7 days 50° C.)
  pH: 6.09
[2]; nominal pH 6.5 sparged N2, Initial
  pH: 6.12
[2]; [26]
  pH: 6.10
[2]; [9]
  pH: 6.10
[2]; nominal pH 7.0, Initial
  pH: 6.12
[2]; nominal pH 7.0 UV Light, pH on completion of testing
  pH: 6.07^a
[2]; [27]
  pH: 6.58
[2]; [12]
  pH: 6.59
[2]; nominal pH 7.5, Initial
  pH: 6.60
[2]; [28]
  pH: 6.86
[2]; [13]
  pH: 6.84
[2]; nominal pH 8.0, Initial
  pH: 6.87
[2]; [14]
  pH: 7.72
[2]; [15]
  pH: 7.70
[2]; nominal pH 9.0, Initial
  pH: 7.71
[2]; pH 4 formulation
  drop in pH on preparation: 0.14 units
[2]; pH 9 formulation
  drop in pH on preparation: 1.29 units
[2]; 10 mg/mL in the aqueous vehicles of the initial tests
  pH of the solutions: 3-4
[2]; 20 mg/mL in B-R buffer, overnight storage under ambient conditions
  pH after overnight storage: no changes from the initial pH values
[2]; phosphate buffer at 20 mM
  initial pH: 5.9
  pH on storage of the solution overnight in the laboratory: continued to drop
[2]; [29]
  initial pH: > 6.5
  pH on storage: remained stable
[3]; 20 mg/mL in B-R buffer, pH 4 to 10, filtered after overnight storage
  content after filtration: approximately the same content
[3]; [21]
  Concentration (assay): 2.57 mg/mL
[3]; [22]
  Concentration (assay): 2.52 mg/mL
[3]; nominal pH 4.0, Initial
  Concentration (assay): 2.47 mg/mL
[3]; [23]
  Concentration (assay): 2.48 mg/mL
[3]; [6]
  Concentration (assay): 2.52 mg/mL
[3]; nominal pH 5.0, Initial
  Concentration (assay): 2.50 mg/mL
[3]; [24]
  Concentration (assay): 2.56 mg/mL
[3]; [7]
  Concentration (assay): 2.48 mg/mL
[3]; nominal pH 6.0, Initial
  Concentration (assay): 2.51 mg/mL
[3]; [25]
  Concentration (assay): 2.59 mg/mL
[3]; [8]
  Concentration (assay): 2.51 mg/mL
[3]; nominal pH 6.5, Initial
  Concentration (assay): 2.49 mg/mL
[3]; [26]
  Concentration (assay): 2.54 mg/mL
[3]; [9]
  Concentration (assay): 2.45 mg/mL
[3]; nominal pH 7.0, Initial
  Concentration (assay): 2.54 mg/mL
[3]; [10]
  Concentration (assay): 2.26^a mg · mL^−1
[3]; nominal pH 7.0 UV Light aliquot, Initial
  Concentration (assay): 2.54 mg/mL
[3]; nominal pH 7.0 sparged N2, Day 7 (7 days 40° C.)
  Concentration (assay): 2.54 mg/mL
[3]; [11]
  Concentration (assay): 2.51 mg/mL
[3]; nominal pH 7.0 sparged N2, Initial
  Concentration (assay): 2.54 mg/mL
[3]; [27]
  Concentration (assay): 2.55 mg/mL
[3]; [12]
  Concentration (assay): 2.46 mg/mL
[3]; nominal pH 7.5, Initial
  Concentration (assay): 2.50 mg/mL
[3]; [28]
  Concentration (assay): 2.49 mg/mL
[3]; [13]
  Concentration (assay): 2.42 mg/mL
[3]; nominal pH 8.0, Initial
  Concentration (assay): 2.49 mg/mL
[3]; [14]
  Concentration (assay): 2.41 mg/mL
[3]; [15]
  Concentration (assay): 2.46 mg/mL
[3]; nominal pH 9.0, Initial
  Concentration (assay): 2.47 mg/mL
[4]; 20 mg/mL in B-R buffer at pH 4, 5, 6 and 7
  Solubility / appearance of solution: clear and colourless
[4]; 20 mg/mL in B-R buffer at pH 8
  Solubility / appearance of solution: hazy
[4]; 20 mg/mL in B-R buffer at pH 9 and pH 10
  Solubility / appearance of solution: contained a precipitate
[4]; 20 mg/mL in Britton-Robinson buffer solution, before pH adjustment
  Solubility on dissolution: very soluble
[5]
  Solubility: readily soluble
